Data on ten compounds can be found in ChEMBL document CHEMBL5325502, “Discovery of 2,4-diphenyl-substituted thiazole derivatives as PRMT1 inhibitors and investigation of their anti-cervical cancer effects” (Bioorg Med Chem, 2023).

Activity calls are given as the source filed them. The rule behind the calls is not given here.

The target in assay [1] is T1, Protein arginine N-methyltransferase 1 (Homo sapiens, UniProt Q99873). Nature of the assay: Displacement of [3H]SAM from PRMT1 (unknown origin) at 10 uM preincubated for 15 mins followed by [3H]SAM addition measured after 60 mins by radiometric/luminescence based assay relative to control. Particulars: time 75.0 min.
Target sequence in this assay (Q99873 whole entry, looked up): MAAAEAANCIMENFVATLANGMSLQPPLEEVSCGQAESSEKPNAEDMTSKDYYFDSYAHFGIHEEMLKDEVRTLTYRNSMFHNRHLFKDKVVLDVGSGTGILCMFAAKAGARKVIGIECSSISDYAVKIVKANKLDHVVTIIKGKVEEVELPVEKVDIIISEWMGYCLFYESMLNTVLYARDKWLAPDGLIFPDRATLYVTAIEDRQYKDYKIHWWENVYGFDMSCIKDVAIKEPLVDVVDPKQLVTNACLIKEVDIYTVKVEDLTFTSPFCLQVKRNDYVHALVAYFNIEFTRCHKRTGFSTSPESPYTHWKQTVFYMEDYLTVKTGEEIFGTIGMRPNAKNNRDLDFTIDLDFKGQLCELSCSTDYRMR
For assay [2], the system named is HeLa. Nature of the assay: Antiproliferative activity against human HeLa cells incubated for 48 hrs by CCK8 assay. It counts as functional, cell-based.
Assay [3] deals with HeLa. In words: Induction of apoptosis in human HeLa cells assessed as early apoptotic cells at 8 uM incubated for 24 hrs by flow cytometry (reference value: 28.2 %). Format: functional.
Assay [4] deals with HeLa. Nature of the assay: Downregulation of pro-caspase 9 expression in human HeLa cells incubated for 48 hrs by Western blot analysis. It counts as functional, cell-based. The following applies: dose 2-8 µM.
The test system of assay [5] is HeLa. Nature of the assay: Induction of apoptosis in human HeLa cells assessed as necrotic cells at 32 uM incubated for 24 hrs by flow cytometry (reference value: 1.10 %). It counts as functional.
In assay [6] the test system is HeLa. Nature of the assay: Downregulation of ADMA expression in human HeLa cells incubated for 48 hrs by Western blot analysis. It counts as functional, cell-based. The following applies: dose 2-8 µM.
Assay [7] has as its system HeLa. Nature of the assay: Induction of apoptosis in human HeLa cells assessed as early apoptotic cells at 32 uM incubated for 24 hrs by flow cytometry (reference value: 28.2 %). It counts as functional.
Assay [8] has as its system HeLa. Nature of the assay: Downregulation of DDAH expression in human HeLa cells at 2 to 8 uM incubated for 48 hrs by Western blot analysis. It counts as functional, cell-based. Particulars: dose 2-8 µM.
For a further assay, the system named is MDA-MB-231. Nature of the assay: Antiproliferative activity against human MDA-MB-231 cells incubated for 48 hrs by CCK8 assay. It counts as functional, cell-based. The following applies: MDA-MB-231, 48 h.
Assay [9] relates to HeLa. In words: Induction of apoptosis in human HeLa cells assessed as late apoptotic cells at 16 uM incubated for 24 hrs by flow cytometry (reference value: 4.37 %). Format: functional.
Assay [10] has as its system HeLa. Nature of the assay: Induction of apoptosis in human HeLa cells assessed as viable cells at 32 uM incubated for 24 hrs by flow cytometry (reference value: 66.3 %). Format: functional. The following applies: read-out: Activity.
Assay [11] concerns HeLa. Nature of the assay: Induction of apoptosis in human HeLa cells assessed as necrotic cells at 8 uM incubated for 24 hrs by flow cytometry (reference value: 1.10 %). It counts as functional.
The subject of assay [12] is HeLa. Nature of the assay: Inhibition of cell migration in human HeLa cells incubated at 24 hrs by crystal violet staining based transwell assay. It counts as functional. The following applies: dose 2-8 µM.
Assay [13] concerns HeLa. In words: Inhibition of cell migration in human HeLa cells incubated upto 48 hrs by scratch wound healing assay. Format: functional, cell-based. The following applies: dose 2-8 µM.
For assay [14], the system named is HeLa. Nature of the assay: Induction of apoptosis in human HeLa cells assessed as late apoptotic cells at 8 uM incubated for 24 hrs by flow cytometry (reference value: 4.37 %). It counts as functional.
Assay [15] relates to HeLa. Nature of the assay: Induction of apoptosis in human HeLa cells assessed as viable cells at 8 uM incubated for 24 hrs by flow cytometry (reference value: 66.3 %). Format: functional. The following applies: read-out: Activity.
Assay [16] concerns HeLa. In words: Effect on PRMT1 expression in human HeLa cells at 2 to 8 uM incubated for 48 hrs by Western blot analysis. Particulars: dose 2-8 µM. It counts as functional, cell-based.
The test system of the next assay is HepG2. In words: Antiproliferative activity against human HepG2 cells incubated for 48 hrs by CCK8 assay. Format: functional, cell-based. Particulars: HepG2, 48 h.
The subject of assay [17] is HeLa. In words: Downregulation of N-Cadherin expression in human HeLa cells incubated for 48 hrs by Western blot analysis. Format: functional, cell-based. The following applies: dose 2-8 µM.
Assay [18] has as its system HeLa. In words: Induction of early apoptosis in human HeLa cells assessed as dense nuclei incubated for 24 hrs by hoechst staining based analysis. The following applies: dose <= 32.0 µM. Format: functional, cell-based.
Assay [19] has as its system HeLa. Nature of the assay: Effect on SDMA expression in human HeLa cells at 2 to 8 uM incubated for 48 hrs by Western blot analysis. It counts as functional, cell-based. Particulars: dose 2-8 µM.
Assay [20] relates to HeLa. Nature of the assay: Induction of apoptosis in human HeLa cells assessed as late apoptotic cells at 32 uM incubated for 24 hrs by flow cytometry (reference value: 4.37 %). It counts as functional.
Assay [21] has as its target T1, Protein arginine N-methyltransferase 1. Nature of the assay: Displacement of [3H]SAM from PRMT1 (unknown origin) preincubated for 15 mins followed by [3H]SAM addition measured after 60 mins by radiometric/luminescence based assay.
Target sequence in this assay (Q99873 whole entry): as the sequence (Q99873 whole entry, looked up) above
Assay [22] concerns the target Protein arginine N-methyltransferase 5 (Homo sapiens) (UniProt O14744). Nature of the assay: Inhibition of PRMT5 (unknown origin) using SAM as substrate incubated for 60 mins by chemiluminescence based assay.
For assay [23], the system named is HeLa. In words: Induction of apoptosis in human HeLa cells assessed as viable cells at 16 uM incubated for 24 hrs by flow cytometry (reference value: 66.3 %). It counts as functional. Particulars: read-out: Activity.
The test system of assay [24] is HeLa. In words: Induction of apoptosis in human HeLa cells assessed as necrotic cells at 16 uM incubated for 24 hrs by flow cytometry (reference value: 1.10 %). Format: functional.
The test system of assay [25] is HeLa. In words: Downregulation of MMP2 expression in human HeLa cells incubated for 48 hrs by Western blot analysis. It counts as functional, cell-based. Particulars: dose 2-8 µM.
The test system of assay [26] is HeLa. In words: Induction of early apoptosis in human HeLa cells assessed as nuclear edge fusion incubated for 24 hrs by hoechst staining based analysis. Format: functional, cell-based. The following applies: dose <= 32.0 µM.
Assay [27] concerns HeLa. In words: Induction of early apoptosis in human HeLa cells assessed as nuclear fragmentation incubated for 24 hrs by hoechst staining based analysis. It counts as functional, cell-based. The following applies: dose <= 32.0 µM.
In assay [28] the test system is HeLa. In words: Induction of early apoptosis in human HeLa cells assessed as reduction in number of cells incubated for 24 hrs by hoechst staining based analysis. It counts as functional, cell-based. Particulars: dose <= 32.0 µM.
A further assay relates to A549. Nature of the assay: Antiproliferative activity against human A549 cells incubated for 48 hrs by CCK8 assay. Format: functional, cell-based. Particulars: A549, 48 h.
The test system of assay [29] is HeLa. In words: Induction of apoptosis in human HeLa cells assessed as early apoptotic cells at 16 uM incubated for 24 hrs by flow cytometry (reference value: 28.2 %). Format: functional.

Sequence of Protein arginine N-methyltransferase 5 (Homo sapiens) (O14744 whole entry): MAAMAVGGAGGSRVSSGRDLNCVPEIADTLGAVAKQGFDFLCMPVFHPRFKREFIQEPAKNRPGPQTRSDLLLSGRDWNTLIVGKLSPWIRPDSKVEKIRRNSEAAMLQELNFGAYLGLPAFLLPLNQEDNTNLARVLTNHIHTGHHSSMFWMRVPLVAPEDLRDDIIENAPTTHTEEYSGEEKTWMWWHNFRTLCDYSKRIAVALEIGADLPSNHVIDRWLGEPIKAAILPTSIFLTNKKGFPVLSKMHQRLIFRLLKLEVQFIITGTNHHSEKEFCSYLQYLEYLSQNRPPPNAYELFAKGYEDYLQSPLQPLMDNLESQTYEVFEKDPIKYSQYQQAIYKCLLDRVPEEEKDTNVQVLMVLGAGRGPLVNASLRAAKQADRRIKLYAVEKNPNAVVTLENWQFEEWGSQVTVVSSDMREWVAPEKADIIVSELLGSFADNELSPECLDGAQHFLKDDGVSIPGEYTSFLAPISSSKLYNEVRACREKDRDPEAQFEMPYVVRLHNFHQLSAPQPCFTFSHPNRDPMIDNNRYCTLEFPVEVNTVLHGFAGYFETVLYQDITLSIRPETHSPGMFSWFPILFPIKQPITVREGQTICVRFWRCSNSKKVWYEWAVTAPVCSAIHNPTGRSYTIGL

Consider `CNCCN(C)Cc1sc(-c2cccc(OC(F)(F)F)c2)nc1-c1cccc(OC)c1`, for which the inhibition in [1] is 31%.
On to `CNCCN(C)Cc1sc(-c2cccc(N3CCOCC3)c2)nc1-c1ccc(OC)cc1`, for which the inhibition in assay [1] worked out at 30%.
With `CNCCN(C)Cc1sc(-c2cccc(OC(F)(F)F)c2)nc1-c1ccc(OC)cc1`, the inhibition in [1] was determined as 21%.
Consider `N=C(N)c1ccc(-c2ccc(-c3ccc(C(=N)N)cc3)o2)cc1`, for which, in [1], the inhibition was found to be 98.1%.
Consider `CNCCN(C)Cc1sc(-c2ccc(OC)cc2)nc1-c1ccc(OC)cc1.Cl`, for which the IC50 came to 9.43 µM in the assay on HeLa [2]; 16.9 µM with MDA-MB-231; 16 µM in the assay on HepG2; 11.8 µM in assay [21]; 18.4 µM in the assay with A549. Besides, the Activity in the assay with HeLa [3] is 35.9%; in the assay with HeLa [5], 0.97%; with HeLa [6], “Dose-Dependent Effect”; with HeLa [7] it was 64.8%; in the assay on HeLa [9], 17.5%; in the assay with HeLa [11] it was 1.33%. The Activity in the assay on HeLa [14] was 6.65%; in the assay on HeLa [17], “Dose-Dependent Effect”; in the assay on HeLa [18], “Dose-Dependent Effect”; in the assay on HeLa [20] it was 22.9%; in the assay with HeLa [24] it was 1.33%; in the assay with HeLa [25], “Dose-Dependent Effect”. Besides, the Activity result with HeLa [26] was “Dose-Dependent Effect”; in the assay with HeLa [27], “Dose-Dependent Effect”; with HeLa [28] it was “Dose-Dependent Effect”; in the assay with HeLa [29], 51.9%. Besides, the outcome in the assay with HeLa [4] and with HeLa [8] was Active. For the same compound, the viability at 32 µM in the assay on HeLa [10] amounted to 11.3%. Moreover, the inhibition entry with HeLa [12] was “Dose-Dependent Effect”; in the assay on HeLa [13], “Dose-Dependent Effect”; in assay [22], 2.52%; in assay [1] it was 60%. In the assay with HeLa [15], the viability at 8 µM was determined as 56.2%. The outcome in the assay with HeLa [16] and with HeLa [19] was inactive. Besides, the viability at 16 µM in the assay on HeLa [23] turned out to be 29.3%.
Consider `CNCCN(C)Cc1sc(-c2ccc(OC(F)(F)F)cc2)nc1-c1cccc(OC)c1`, for which the inhibition in [1] amounted to 35%.
Consider `CNCCN(C)Cc1sc(-c2ccc(N3CCOCC3)cc2)nc1-c1ccc(OC)cc1`, for which the IC50 came to 19.4 µM in the assay with HeLa [2]; 31.4 µM in the assay with MDA-MB-231; 20 µM in the assay on HepG2; 7.07 µM in assay [21]; 33.9 µM with A549. For the same compound, the inhibition was 6% in assay [22] and 56% in assay [1].
In assay [1], `CNCCN(C)Cc1sc(-c2cccc(OC)c2)nc1-c1ccc(OC)cc1` came in with an inhibition of 43%.
For `CNCCNCc1sc(-c2ccc(OC)cc2)nc1-c1ccc(OC)cc1`, the inhibition in [1] is 7%.
In [1], `CNCCN(C)Cc1sc(-c2ccc(OC(F)(F)F)cc2)nc1-c1ccc(OC)cc1` yielded an inhibition of 39%.
